The text below walks through data of US7732471B2, “6-oxazol-4-ylmetholmethoxy-alko-alkoxymethyl substituted benzoic acid derivatives forming peroxisome proliferator—activated receptor (PPAR) ligands, process for their preparation and methods of use thereof” (Sanofi-Aventis, priority 2005, dated 2010).

Assay [1] addresses T1, human PPARalpha (Homo sapiens, UniProt Q07869).
T1 construct: human PPARalpha receptor (amino acids S167-Y468); expressed in transfected cells; host or cells: HEK cells, stably transfected (pcDNA3 construct)
T1 sequence (Q07869 167-468): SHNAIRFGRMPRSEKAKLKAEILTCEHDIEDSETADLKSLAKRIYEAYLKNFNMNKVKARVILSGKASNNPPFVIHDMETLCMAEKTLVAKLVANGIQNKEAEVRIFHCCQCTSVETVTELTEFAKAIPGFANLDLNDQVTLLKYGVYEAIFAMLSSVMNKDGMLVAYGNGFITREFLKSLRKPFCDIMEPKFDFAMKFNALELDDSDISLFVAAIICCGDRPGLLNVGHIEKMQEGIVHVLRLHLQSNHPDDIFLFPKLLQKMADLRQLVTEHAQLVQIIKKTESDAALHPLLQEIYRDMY
Nature of the assay: Cellular PPARalpha assay (stably transfected HEK luciferase reporter cell line). Format: cell-based. The note with it: PPARalpha reporter cell line (HEK, GR-GAL4-humanPPARalpha-LBD), 24 h incubation. On the procedure:
Determination of EC50 Values of PPAR Agonists in the Cellular PPARalpha Assay
The potency of substances which bind to human PPARalpha and activate it in an agonistic manner is analyzed using a stably transfected HEK cell line (HEK=human embryonic kidney) which is referred to here as PPARalpha reporter cell line. It contains two genetic elements, a luciferase reporter element (pdeltaM-GAL4-Luc-Zeo) and a PPARalpha fusion protein (GR-GAL4-humanPPARalpha-LBD) which mediates expression of the luciferase reporter element depending on a PPARalpha ligand. The stably and constitutively expressed fusion protein GR-GAL4-humanPPARalpha-LBD binds in the cell nucleus of the PPARalpha reporter cell line via the GAL4 protein portion to the GAL4 DNA binding motifs 5′-upstream of the luciferase reporter element which is stably integrated in the genome of the cell line. There is only little expression of the luciferase reporter gene without addition of a PPARalpha ligand if fatty acid-depleted fetal calf serum (cs-FCS) is used in the assay. PPARalpha ligands bind and activate the PPARalpha fusion protein and thereby bring about expression of the luciferase reporter gene. The luciferase which is formed can be detected by means of chemiluminescence via an appropriate substrate.
The PPARalpha reporter cell line was prepared in two steps. Firstly, the luciferase reporter element was constructed and stably transfected into HEK cells. For this purpose, five binding sites of the yeast transcription factor GAL4 (in each case 5′-CGGAGTACTGTCCTCCGAG-3′) were cloned in 5′-upstream of a 68 bp-long minimal MMTV promoter (Genbank Accession #V01175). The minimal MMTV promoter section contains a CCAAT box and a TATA element in order to enable efficient transcription by RNA polymerase II. The cloning and sequencing of the GAL4-MMTV construct took place in analogy to the description of Sambrook J. et. al. (Molecular cloning, Cold Spring Harbor Laboratory Press, 1989). Then the complete Photinus pyralis luciferase gene (Genbank Accession #M15077) was cloned in 3′-downstream of the GAL4-MMTV element. After sequencing, the luciferase reporter element consisting of five GAL4 binding sites, MMTV promoter and luciferase gene was subcloned into a plasmid which confers zeozin resistance in order to obtain the plasmid pdeltaM-GAL4-Luc-Zeo. This vector was transfected into HEK cells in accordance with the statements in Ausubel, F. M. et al. (Current protocols in molecular biology, Vol. 1-3, John Wiley & Sons, Inc., 1995).
In a second step, the PPARalpha fusion protein (GR-GAL4-humanPPARalpha-LBD) was introduced into the stable cell clone described. For this purpose, initially the cDNA coding for the N-terminal 76 amino acids of the glucocorticoid receptor (Genbank Accession #P04150) was linked to the cDNA section coding for amino acids 1-147 of the yeast transcription factor GAL4 (Genbank Accession #P04386). The cDNA of the ligand-binding domain of the human PPARalpha receptor (amino acids S167-Y468; Genbank Accession #S74349) was cloned in at the 3′ end of this GR-GAL4 construct. The fusion construct prepared in this way (GR-GAL4-humanPPARalpha-LBD) was subcloned into the plasmid pcDNA3 (from Invitrogen) in order to enable constitutive expression therein by the cytomegalovirus promoter. This plasmid was linearized with a restriction endonuclease and stably transfected into the previously described cell clone containing the luciferase reporter element. The finished PPARalpha reporter cell line which contains a luciferase reporter element and constitutively expresses the PPARalpha fusion protein (GR-GAL4-humanPPARalpha-LBD) was isolated by selection with zeozin (0.5 mg/ml) and G418 (0.5 mg/ml).
The activity of PPARalpha agonists is determined in a 3-day assay which is described below: […]
For orientation: A reporter such as luciferase makes a cellular process visible.

Assay [2] addresses T2, human PPARgamma (Homo sapiens, UniProt P37231).
T2 construct: human PPARgamma receptor (amino acids I152-Y475); expressed in transfected cells; host or cells: HEK cells, transiently transfected with pcDNA3-GAL4-humanPPARgammaLBD
T2 sequence (P37231 182-505 limits assumed): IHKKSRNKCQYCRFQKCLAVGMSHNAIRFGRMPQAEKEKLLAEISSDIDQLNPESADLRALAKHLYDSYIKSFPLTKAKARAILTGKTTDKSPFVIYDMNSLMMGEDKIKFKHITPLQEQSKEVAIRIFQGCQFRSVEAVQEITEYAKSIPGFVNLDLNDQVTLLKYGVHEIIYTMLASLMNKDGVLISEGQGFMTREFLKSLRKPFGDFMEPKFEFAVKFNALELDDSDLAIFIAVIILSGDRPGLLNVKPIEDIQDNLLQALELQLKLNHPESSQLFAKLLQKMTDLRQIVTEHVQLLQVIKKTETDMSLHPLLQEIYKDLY
The assay can be described thus: Cellular PPARgamma assay (transiently transfected HEK cells, luciferase reporter). Format: cell-based. The following applies: HEK cells transiently transfected with GAL4-humanPPARgammaLBD, 48 h incubation, firefly/Renilla luciferase ratio. The source says:
Determination of EC50 Values of PPAR Agonists in the Cellular PPARgamma Assay
A transient transfection system is employed to determine the cellular PPARgamma activity of PPAR agonists. It is based on the use of a luciferase reporter plasmid (pGL3basic-5xGAL4-TK) and of a PPARgamma expression plasmid (pcDNA3-GAL4-humanPPARgammaLBD). Both plasmids are transiently transfected into human embryonic kidney cells (HEK cells). There is then expression in these cells of the fusion protein GAL4-humanPPARgammaLBD which binds to the GAL4 binding sites of the reporter plasmid. In the presence of a PPARgamma-active ligand, the activated fusion protein GAL4-humanPPARgammaLBD induces expression of the luciferase reporter gene, which can be detected in the form of a chemiluminescence signal after addition of a luciferase substrate. As a difference from the stably transfected PPARalpha reporter cell line, in the cellular PPARgamma assay the two components (luciferase reporter plasmid and PPARgamma expression plasmid) are transiently transfected into HEK cells because stable and permanent expression of the PPARgamma fusion protein is cytotoxic.
The luciferase reporter plasmid pGL3basic-5xGAL4-TK is based on the vector pGL3basic from Promega. The reporter plasmid is prepared by cloning five binding sites of the yeast transcription factor GAL4 (each binding site with the sequence 5′-CTCGGAGGACAGTACTCCG-3′), together with a 160 bp-long thymidine kinase promoter section (Genbank Accession #AF027128) 5′-upstream into pGL3basic. 3′-downstream of the thymidine kinase promoter is the complete luciferase gene from Photinus pyralis (Genbank Accession #M15077), which is already a constituent of the plasmid pGL3basic used. The cloning and sequencing of the reporter plasmid pGL3basic-5xGAL4-TK took place in analogy to the description in Sambrook J. et. al. (Molecular cloning, Cold Spring Harbor Laboratory Press, 1989).
The PPARgamma expression plasmid pcDNA3-GAL4-humanPPARgammaLBD was prepared by first cloning the cDNA coding for amino acids 1-147 of the yeast transcription factor GAL4 (Genbank Accession #P04386) into the plasmid pcDNA3 (from Invitrogen) 3′-downstream of the cytomegalovirus promoter. Subsequently, the cDNA of the ligand-binding domain (LBD) of the human PPARgamma receptor (amino acids I152-Y475; Accession #g1480099) 3′-downstream of the GAL4 DNA binding domain was cloned. Cloning and sequencing of the PPARgamma expression plasmid pcDNA3-GAL4-humanPPARgammaLBD again took place in analogy to the description in Sambrook J. et. al. (Molecular cloning, Cold Spring Harbor Laboratory Press, 1989). Besides the luciferase reporter plasmid pGL3basic-5xGAL4-TK and the PPARgamma expression plasmid pcDNA3-GAL4-humanPPARgammaLBD, also used for the cellular PPARgamma assay are the reference plasmid pRL-CMV (from Promega) and the plasmid pBluescript SK(+) from Stratagene. All four plasmids were prepared using a plasmid preparation kit from Qiagen, which ensured a plasmid quality with a minimal endotoxin content, before transfection into HEK cells.
The activity of PPARgamma agonists is determined in a 4-day assay which is described below. Before the transfection, HEK cells are cultivated in DMEM medium (#41965-039, Invitrogen) which is mixed with the following additions: 10% FCS (#16000-044, Invitrogen), 1% penicillin-streptomycin solution (#15140-122, Invitrogen) and 2 mM L-glutamine (#25030-024, Invitrogen).
A transfection mixture (solution A) which contains all four plasmids previously described in a DMEM medium, is prepared. The following amounts are used to make up 3 ml of solution A for each 96-well microtiter plate for an assay: 2622 μl of antibiotic- and serum-free DMEM medium (#41965-039, Invitrogen), 100 μl of reference plasmid pRL-CMV (1 ng/μl), 100 μl of luciferase reporter plasmid pGL3basic-5xGAL4-TK (10 ng/μl), 100 μl of PPARgamma expression plasmid pcDNA3-GAL4-humanPPARgammaLBD (100 ng/μl) and 78 μl of plasmid pBluescript SK(+) (500 ng/μl). […]

As usually defined, the EC50 is the concentration at which the effect is half-maximal. On to `Cc1cccc(COCCCOCc2coc(-c3ccccc3)n2)c1C(=O)O` [*, reference compound], for which the EC50 is 1 nM in assay [1] and greater than 10000 nM in assay [2].
The matching figures for `Cc1cccc(COCCCOCc2nc(-c3ccc(-c4ccccc4)cc3)oc2C)c1C(=O)O` [Example 3, 2-Methyl-6-[3-(5-methyl-2-p-biphenyloxazol-4-ylmethoxy)propoxymethyl]benzoic acid]: 4.2 nM and 150 nM.
The matching figures for `Cc1cccc(COCCCOCc2nc(-c3ccc(Oc4ccccc4)cc3)oc2C)c1C(=O)O` [Example 8, 2-Methyl-6-{3-[5-methyl-2-(4-phenoxyphenyl)oxazol-4-ylmethoxy]propoxymethyl}-benzoic acid]: 11 nM and 40 nM.
Regarding `COc1ccc(-c2nc(COCCCOCc3cccc(C)c3C(=O)O)c(C)o2)cc1OC` [Example 11, 2-Methyl-6-{3-[5-methyl-2-(3,4-dimethoxyphenyl)oxazol-4-ylmethoxy]propoxymethyl}-benzoic acid], the figures for the EC50 in assay [1] and in assay [2] were 8.7 nM and 630 nM, respectively.
`CCc1oc(-c2cccc(OC)c2)nc1COCCCOCc1cccc(C)c1C(=O)O` [Example 17]: the EC50 in assay [1] was 3.7 nM; in assay [2] it was 91 nM.
Consider `Cc1ccc(-c2nc(COCCCOCc3cccc(C)c3C(=O)O)c(C3CCCCC3)o2)cc1` [Example 22, 2-Methyl-6-{3-[5-cyclohexyl-2-p-tolyloxazol-4-ylmethoxy]propoxymethyl}benzoic acid], for which the EC50 is 22 nM in assay [1] and 710 nM in assay [2].
Take `Cc1ccc(-c2nc(COCCCOCc3cccc(C)c3C(=O)O)c(-c3ccccc3)o2)cc1` [Example 23, 2-Methyl-6-[3-(5-phenyl-2-p-tolyloxazol-4-ylmethoxy)propoxymethyl]benzoic acid]: the EC50 in assay [1] amounted to 88 nM; in assay [2] it was 1800 nM.
The matching figures for `COc1cccc(-c2nc(COCC(C)(C)COCc3cccc(C)c3C(=O)O)c(C)o2)c1` [Example 27, 2-{3-[2-(3-Methoxyphenyl)-5-methyloxazol-4-ylmethoxy]-2,2-dimethylpropoxymethyl}-6-methylbenzoic acid]: 13 nM and 390 nM.
The matching figures for `COc1cccc(-c2nc(COCCCCOCc3cccc(C)c3C(=O)O)c(C)o2)c1` [Example 31, 2-Methyl-6-{4-[2-(3-methoxyphenyl)-5-methyloxazol-4-ylmethoxy]butoxymethyl}-benzoic acid]: 1.4 nM and 17 nM.
Take `Cc1cccc(COCCCCOCc2nc(-c3cccc(C(F)(F)F)c3)oc2C(C)C)c1C(=O)O` [Example 32, 2-{4-[5-Isopropyl-2-(3-trifluoromethylphenyl)oxazol-4-ylmethoxy]butoxymethyl}-6-methylbenzoic acid]: the 50% effective concentration (EC50) in assay [1] worked out at 1.6 nM; in assay [2], 72 nM.
For the compound `Cc1cccc(COCCCCOCc2nc(-c3ccc(-c4ccccc4)cc3)oc2C)c1C(=O)O` [Example 33, 2-Methyl-6-[4-(2-p-biphenyl-5-methyloxazol-4-ylmethoxy)butoxymethyl]benzoic acid], the EC50 in assay [1] stood at 21 nM; in assay [2] it was 14 nM.
